Experimental findings from ChEMBL document CHEMBL1155943, “Design of a sialylglycopolymer with a chitosan backbone having efficient inhibitory activity against influenza virus infection” (J Med Chem, 2008) are described below.

By IC50 is commonly meant the concentration that inhibits the measured activity by half.

Values after ≈ are worked out from the molar mass of the structure shown.

Assay [1] relates to Influenza A virus H3N2. Nature of the assay: Antiviral activity against Influenza virus (A/Panama/2007/99 (H3N2)) infected in MDCK cells assessed as sialic acid concentration. It counts as functional, organism-based, Influenza A virus (A/Panama/2007/1999(H3N2)).
For assay [2], the system named is Influenza A virus H3N2. Nature of the assay: Antiviral activity against Influenza virus (A/Panama/2007/99 (H3N2)) infected in MDCK cells. It counts as functional, organism-based, Influenza A virus (A/Panama/2007/1999(H3N2)).
Assay [3] concerns Influenza A virus (A/Puerto Rico/8/1934(H1N1)). Briefly: Antiviral activity against human influenza virus (A/New Caledonia/20/1999 (H1N1)) infected in MDCK cells assessed as sialic acid concentration. It counts as functional, organism-based, Influenza A virus (A/New Caledonia/20/1999(H1N1)).
Assay [4] relates to Influenza B virus. Briefly: Antiviral activity against Influenza virus (B/Shanghai/361/2002) infected in MDCK cells. It counts as functional, organism-based. As to conditions: B/Shanghai/361/2002, MDCK.
For assay [5], the system named is Influenza B virus. Nature of the assay: Antiviral activity against Influenza virus (B/Shanghai/361/2002) infected in MDCK cells assessed as sialic acid concentration. It counts as functional, organism-based. As to conditions: B/Shanghai/361/2002, MDCK.
The subject of assay [6] is Influenza A virus (A/Puerto Rico/8/1934(H1N1)). Briefly: Antiviral activity against human influenza virus (A/New Caledonia/20/1999 (H1N1)) infected in MDCK cells. It counts as functional, organism-based, Influenza A virus (A/New Caledonia/20/1999(H1N1)).

As to `CC(=O)N[C@H]1[C@H]([C@H](O)[C@H](O)CO)O[C@](OC[C@H]2O[C@@H](O[C@@H]([C@H](O)[C@H](C=O)NC(C)=O)[C@H](O)CO)[C@H](O)[C@@H](O)[C@H]2O)(C(=O)O)C[C@@H]1O`, the half-inhibitory concentration (IC50) in the assay with Influenza A virus H3N2 [1] was found to be 4 mM; in the assay on Influenza A virus H3N2 [2], 3000 µg/mL (≈ 4.45 mM); in assay [3], 3 mM; in the assay with Influenza B virus [4], 10000 µg/mL (≈ 14.8 mM); with Influenza B virus [5] it was 14.8 mM; in assay [6], 2000 µg/mL (≈ 2.96 mM).
